Test results published in ChEMBL document CHEMBL5653615 (J Biol Chem, 2013).
Activity calls are given as the source filed them. The calls are words filed in the database; no cut-off is given here.

Key:
[1] = target: Calcium/calmodulin-dependent protein kinase kinase 2 (Homo sapiens) (UniProt Q96RR4); test: Inhibition of human CAMKK2 at 18.6 nM by HotSpot assay relative to control
[2] = target: RAF proto-oncogene serine/threonine-protein kinase (Homo sapiens) (UniProt P04049); test: Inhibition of human RAF1 at 18.6 nM by HotSpot assay relative to control
RAF proto-oncogene serine/threonine-protein kinase (Homo sapiens), sequence (P04049 whole entry): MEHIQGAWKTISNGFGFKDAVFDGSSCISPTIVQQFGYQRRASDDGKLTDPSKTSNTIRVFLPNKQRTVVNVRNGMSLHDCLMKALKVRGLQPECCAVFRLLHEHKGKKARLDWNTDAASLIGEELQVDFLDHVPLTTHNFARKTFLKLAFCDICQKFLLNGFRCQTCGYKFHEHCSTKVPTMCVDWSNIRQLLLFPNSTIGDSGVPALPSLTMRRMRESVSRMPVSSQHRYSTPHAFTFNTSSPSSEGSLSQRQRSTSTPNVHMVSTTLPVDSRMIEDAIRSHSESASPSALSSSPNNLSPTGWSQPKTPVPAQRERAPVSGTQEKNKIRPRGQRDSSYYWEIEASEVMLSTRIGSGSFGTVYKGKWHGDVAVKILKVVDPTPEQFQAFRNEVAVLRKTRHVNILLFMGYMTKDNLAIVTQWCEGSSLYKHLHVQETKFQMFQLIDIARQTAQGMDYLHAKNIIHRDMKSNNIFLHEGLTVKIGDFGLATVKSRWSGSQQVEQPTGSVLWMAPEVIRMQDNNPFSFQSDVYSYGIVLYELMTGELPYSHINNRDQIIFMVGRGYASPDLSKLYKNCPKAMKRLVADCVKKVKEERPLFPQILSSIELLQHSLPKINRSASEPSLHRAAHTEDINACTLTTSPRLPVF

[3] = target: Serine/threonine-protein kinase WNK3 (Homo sapiens) (UniProt Q9BYP7); test: Inhibition of human WNK3 at 18.6 nM by HotSpot assay relative to control
Serine/threonine-protein kinase WNK3 (Homo sapiens), sequence (Q9BYP7 whole entry, the tested form may be a part): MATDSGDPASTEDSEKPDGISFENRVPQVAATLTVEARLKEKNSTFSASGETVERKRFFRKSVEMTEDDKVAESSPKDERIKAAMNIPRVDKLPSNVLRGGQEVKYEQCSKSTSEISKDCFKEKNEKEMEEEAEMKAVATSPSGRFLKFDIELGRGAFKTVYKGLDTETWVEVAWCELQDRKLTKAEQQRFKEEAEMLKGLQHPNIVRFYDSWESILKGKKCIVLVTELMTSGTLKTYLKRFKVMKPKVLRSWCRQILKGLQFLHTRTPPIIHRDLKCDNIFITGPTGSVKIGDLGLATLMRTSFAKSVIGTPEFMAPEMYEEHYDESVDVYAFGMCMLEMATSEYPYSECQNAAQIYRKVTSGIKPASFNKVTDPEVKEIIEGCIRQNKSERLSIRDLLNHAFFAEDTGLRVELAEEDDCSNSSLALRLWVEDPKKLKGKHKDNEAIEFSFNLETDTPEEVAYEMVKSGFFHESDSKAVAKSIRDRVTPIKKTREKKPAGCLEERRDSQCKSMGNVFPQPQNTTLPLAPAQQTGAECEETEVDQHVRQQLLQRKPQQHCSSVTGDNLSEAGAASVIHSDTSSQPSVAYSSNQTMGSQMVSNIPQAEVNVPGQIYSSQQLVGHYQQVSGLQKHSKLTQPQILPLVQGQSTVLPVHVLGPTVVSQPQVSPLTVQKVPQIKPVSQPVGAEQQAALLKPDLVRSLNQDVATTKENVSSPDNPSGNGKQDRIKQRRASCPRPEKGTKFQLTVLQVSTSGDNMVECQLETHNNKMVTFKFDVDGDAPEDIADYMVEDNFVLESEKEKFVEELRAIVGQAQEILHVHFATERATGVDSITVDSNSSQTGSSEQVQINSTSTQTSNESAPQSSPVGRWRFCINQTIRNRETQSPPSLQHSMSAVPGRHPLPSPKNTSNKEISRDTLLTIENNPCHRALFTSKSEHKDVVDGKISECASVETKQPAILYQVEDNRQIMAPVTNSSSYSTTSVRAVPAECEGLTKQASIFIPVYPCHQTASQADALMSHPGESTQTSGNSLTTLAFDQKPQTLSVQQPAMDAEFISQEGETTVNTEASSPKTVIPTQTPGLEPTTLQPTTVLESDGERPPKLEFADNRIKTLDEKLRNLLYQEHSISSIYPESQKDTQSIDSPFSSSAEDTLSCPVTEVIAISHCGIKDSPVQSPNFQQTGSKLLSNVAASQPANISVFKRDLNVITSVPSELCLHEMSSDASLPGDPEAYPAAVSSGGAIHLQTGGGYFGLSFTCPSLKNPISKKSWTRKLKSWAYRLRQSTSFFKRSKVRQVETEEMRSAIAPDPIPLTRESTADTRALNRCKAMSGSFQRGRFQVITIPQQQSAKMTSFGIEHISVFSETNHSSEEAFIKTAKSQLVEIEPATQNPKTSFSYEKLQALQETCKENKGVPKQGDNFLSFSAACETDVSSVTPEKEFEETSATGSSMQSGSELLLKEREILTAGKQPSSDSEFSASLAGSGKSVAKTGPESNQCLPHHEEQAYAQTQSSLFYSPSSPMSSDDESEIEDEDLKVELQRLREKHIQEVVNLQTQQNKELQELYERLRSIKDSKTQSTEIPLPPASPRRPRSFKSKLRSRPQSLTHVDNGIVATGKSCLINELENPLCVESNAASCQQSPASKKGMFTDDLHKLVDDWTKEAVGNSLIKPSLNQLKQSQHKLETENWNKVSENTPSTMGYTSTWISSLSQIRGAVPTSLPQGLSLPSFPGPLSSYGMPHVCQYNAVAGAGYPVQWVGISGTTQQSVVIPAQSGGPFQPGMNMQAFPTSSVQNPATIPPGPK

[4] = Inhibition of di-phosphorylated human Insulin receptor (978 to 1283 residues) C981S mutant kinase domain expressed in baculovirus infected Sf9 cells incubated for 1 hr by [gamma-33P]ATP assay
[5] = target: T1, Serine/threonine-protein kinase Chk1 (Homo sapiens) (UniProt O14757); test: Inhibition of human CHK1 at 1.82 nM by HotSpot assay relative to control
T1 sequence (whole entry): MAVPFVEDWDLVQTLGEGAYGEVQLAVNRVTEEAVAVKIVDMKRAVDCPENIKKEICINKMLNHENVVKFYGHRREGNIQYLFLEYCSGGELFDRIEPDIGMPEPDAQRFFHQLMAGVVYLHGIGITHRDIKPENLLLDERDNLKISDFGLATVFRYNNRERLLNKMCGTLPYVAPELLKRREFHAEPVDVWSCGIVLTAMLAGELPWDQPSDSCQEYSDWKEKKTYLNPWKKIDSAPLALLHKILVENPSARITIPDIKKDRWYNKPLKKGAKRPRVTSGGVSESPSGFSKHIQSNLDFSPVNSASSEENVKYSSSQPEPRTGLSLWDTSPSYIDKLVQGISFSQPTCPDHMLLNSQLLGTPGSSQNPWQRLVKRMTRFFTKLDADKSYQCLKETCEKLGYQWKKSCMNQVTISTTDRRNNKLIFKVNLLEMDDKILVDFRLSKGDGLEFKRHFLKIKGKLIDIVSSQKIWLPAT

[6] = target: T2, Inhibitor of nuclear factor kappa-B kinase subunit epsilon (Homo sapiens) (UniProt Q14164); conditions: dose 1.82 nM
T2 sequence (whole entry): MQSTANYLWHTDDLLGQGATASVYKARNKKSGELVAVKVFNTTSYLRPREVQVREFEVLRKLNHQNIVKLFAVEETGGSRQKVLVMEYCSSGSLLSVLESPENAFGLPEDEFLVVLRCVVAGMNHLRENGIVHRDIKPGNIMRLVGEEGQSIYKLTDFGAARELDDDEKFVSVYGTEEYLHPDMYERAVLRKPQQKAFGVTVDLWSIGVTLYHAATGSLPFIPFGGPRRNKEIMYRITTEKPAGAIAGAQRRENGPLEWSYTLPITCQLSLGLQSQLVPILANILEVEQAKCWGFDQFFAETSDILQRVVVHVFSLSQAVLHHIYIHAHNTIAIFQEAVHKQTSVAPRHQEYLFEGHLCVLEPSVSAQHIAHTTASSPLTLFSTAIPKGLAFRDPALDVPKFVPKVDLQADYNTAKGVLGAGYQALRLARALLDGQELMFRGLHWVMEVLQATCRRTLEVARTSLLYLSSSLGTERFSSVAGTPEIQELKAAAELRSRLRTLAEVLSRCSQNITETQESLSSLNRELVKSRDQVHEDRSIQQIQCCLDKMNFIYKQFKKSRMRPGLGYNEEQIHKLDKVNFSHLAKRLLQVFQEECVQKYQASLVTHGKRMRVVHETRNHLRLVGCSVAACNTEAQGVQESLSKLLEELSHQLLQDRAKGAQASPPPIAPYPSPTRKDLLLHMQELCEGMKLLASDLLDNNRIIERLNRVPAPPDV
Description: Inhibition of human IKKe at 1.82 nM by HotSpot assay relative to control

[7] = target: Calcium/calmodulin-dependent protein kinase type 1B (Homo sapiens) (UniProt Q6P2M8); test: Inhibition of human CAMK1b at 1.82 nM by HotSpot assay relative to control
Calcium/calmodulin-dependent protein kinase type 1B (Homo sapiens), sequence (Q6P2M8 whole entry): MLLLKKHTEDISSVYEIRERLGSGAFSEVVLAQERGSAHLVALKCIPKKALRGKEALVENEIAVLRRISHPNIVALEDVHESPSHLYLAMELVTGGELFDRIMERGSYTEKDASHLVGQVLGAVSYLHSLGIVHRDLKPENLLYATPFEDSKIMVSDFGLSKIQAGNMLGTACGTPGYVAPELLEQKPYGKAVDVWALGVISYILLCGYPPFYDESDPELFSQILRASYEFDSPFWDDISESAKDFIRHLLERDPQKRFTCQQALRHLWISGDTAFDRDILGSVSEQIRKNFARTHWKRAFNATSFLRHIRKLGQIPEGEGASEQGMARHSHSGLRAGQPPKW

[8] = target: CDK4/Cyclin D3 (Homo sapiens) (UniProt P11802+P30281); test: Inhibition of human CDK4/cyclin D3 at 1.82 nM by HotSpot assay relative to control; assay type: protein-complex assay
[9] = target: T3, Serine/threonine-protein kinase 17A (Homo sapiens) (UniProt Q9UEE5); test: Inhibition of human DRAK1 at 1.82 nM by HotSpot assay relative to control
T3 sequence (whole entry): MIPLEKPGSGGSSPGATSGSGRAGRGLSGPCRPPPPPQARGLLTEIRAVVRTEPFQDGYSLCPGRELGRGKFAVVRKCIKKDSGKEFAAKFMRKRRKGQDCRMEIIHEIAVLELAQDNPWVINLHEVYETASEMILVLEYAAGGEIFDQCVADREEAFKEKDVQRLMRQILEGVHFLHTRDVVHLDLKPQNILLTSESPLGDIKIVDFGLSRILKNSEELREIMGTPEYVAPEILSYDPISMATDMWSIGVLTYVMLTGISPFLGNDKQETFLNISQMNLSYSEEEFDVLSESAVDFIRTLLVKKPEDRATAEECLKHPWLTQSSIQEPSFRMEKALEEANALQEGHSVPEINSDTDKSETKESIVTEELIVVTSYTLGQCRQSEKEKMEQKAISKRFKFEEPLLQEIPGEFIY

[10] = target: Calcium/calmodulin-dependent protein kinase type II subunit beta (Homo sapiens) (UniProt Q13554); test: Inhibition of human CAMK2b at 1.82 nM by HotSpot assay relative to control
Calcium/calmodulin-dependent protein kinase type II subunit beta (Homo sapiens), sequence (Q13554 whole entry): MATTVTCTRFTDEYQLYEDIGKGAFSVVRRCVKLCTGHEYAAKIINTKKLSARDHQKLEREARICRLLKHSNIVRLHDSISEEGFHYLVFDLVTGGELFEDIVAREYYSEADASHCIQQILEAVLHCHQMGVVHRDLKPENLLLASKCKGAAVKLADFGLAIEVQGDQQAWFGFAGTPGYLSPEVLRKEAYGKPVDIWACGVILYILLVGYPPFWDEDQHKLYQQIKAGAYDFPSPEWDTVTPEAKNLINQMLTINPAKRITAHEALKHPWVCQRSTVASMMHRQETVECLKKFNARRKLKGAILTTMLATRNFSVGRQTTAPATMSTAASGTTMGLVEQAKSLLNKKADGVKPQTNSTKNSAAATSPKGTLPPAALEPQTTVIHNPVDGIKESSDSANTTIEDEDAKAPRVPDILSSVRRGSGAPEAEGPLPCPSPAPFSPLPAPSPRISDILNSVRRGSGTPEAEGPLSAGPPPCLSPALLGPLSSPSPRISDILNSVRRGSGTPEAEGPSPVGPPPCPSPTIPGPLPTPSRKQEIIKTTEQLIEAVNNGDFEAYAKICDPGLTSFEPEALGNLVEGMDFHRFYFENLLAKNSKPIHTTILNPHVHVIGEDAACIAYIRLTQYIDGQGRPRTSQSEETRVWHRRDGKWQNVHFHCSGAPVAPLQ

[11] = target: Tyrosine-protein kinase Blk (Homo sapiens) (UniProt P51451); test: Inhibition of human BLK at 1.82 nM by HotSpot assay relative to control
Tyrosine-protein kinase Blk (Homo sapiens), sequence (P51451 2-505 limits assumed): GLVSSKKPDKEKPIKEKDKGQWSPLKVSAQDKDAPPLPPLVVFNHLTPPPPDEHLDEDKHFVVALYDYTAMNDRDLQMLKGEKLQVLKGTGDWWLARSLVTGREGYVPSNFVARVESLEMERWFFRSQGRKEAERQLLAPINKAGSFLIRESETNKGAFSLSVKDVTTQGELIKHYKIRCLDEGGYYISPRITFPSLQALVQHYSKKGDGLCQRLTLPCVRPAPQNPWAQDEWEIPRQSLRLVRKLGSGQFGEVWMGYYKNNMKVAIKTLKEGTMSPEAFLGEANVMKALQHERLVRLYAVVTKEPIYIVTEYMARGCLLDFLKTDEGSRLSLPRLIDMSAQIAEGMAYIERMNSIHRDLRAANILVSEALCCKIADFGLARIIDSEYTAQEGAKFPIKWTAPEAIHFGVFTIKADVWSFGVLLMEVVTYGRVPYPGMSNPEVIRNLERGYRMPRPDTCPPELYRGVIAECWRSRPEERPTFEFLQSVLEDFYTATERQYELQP

[12] = target: T4, Serine/threonine-protein kinase A-Raf (Homo sapiens) (UniProt P10398); test: Inhibition of human ARAF at 1.82 nM by HotSpot assay relative to control
T4 sequence (whole entry): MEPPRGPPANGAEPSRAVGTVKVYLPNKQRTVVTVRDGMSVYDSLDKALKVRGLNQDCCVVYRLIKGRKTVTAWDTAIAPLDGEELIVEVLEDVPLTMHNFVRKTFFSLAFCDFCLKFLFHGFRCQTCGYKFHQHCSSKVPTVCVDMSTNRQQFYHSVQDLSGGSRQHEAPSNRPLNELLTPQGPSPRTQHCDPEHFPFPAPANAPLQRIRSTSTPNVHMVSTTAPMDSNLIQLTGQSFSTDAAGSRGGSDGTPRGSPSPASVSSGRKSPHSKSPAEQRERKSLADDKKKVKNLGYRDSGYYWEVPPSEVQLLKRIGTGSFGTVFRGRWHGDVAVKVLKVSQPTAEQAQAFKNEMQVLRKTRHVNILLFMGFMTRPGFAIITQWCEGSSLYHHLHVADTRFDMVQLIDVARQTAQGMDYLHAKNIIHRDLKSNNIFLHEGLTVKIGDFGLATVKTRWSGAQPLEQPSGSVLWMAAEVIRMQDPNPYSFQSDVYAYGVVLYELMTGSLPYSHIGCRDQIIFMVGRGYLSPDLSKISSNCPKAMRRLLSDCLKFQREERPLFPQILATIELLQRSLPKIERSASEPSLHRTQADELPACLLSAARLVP

Calcium/calmodulin-dependent protein kinase kinase 2 (Homo sapiens), sequence (Q96RR4 2-588 limits assumed): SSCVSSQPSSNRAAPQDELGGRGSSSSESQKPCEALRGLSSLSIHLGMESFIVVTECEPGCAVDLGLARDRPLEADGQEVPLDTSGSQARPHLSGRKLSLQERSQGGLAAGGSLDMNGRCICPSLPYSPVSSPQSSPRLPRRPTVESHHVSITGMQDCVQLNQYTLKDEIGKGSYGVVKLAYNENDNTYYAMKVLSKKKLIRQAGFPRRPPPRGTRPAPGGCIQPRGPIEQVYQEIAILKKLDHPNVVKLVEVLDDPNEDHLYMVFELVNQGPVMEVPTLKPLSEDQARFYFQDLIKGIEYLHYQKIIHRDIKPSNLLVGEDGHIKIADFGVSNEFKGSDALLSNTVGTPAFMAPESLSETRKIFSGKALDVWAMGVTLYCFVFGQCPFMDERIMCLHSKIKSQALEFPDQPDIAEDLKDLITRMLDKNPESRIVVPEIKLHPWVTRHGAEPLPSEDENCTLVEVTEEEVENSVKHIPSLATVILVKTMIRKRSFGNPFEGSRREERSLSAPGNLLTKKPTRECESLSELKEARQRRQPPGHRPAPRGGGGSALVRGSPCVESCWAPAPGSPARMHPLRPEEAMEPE

Question: With C[C@]1(O)C[C@@H](c2nc(-c3ccc4ccc(-c5ccccc5)nc4c3)c3c(N)nccn32)C1 as the compound, how does the inhibition [1] read?
Answer: The inhibition was 28%.

Question: And the inhibition [2]?
Answer: Its inhibition is -5.79%.

Question: And the inhibition [3]?
Answer: Its inhibition is 6.05%.

Question: With Oc1n[nH]c2nnc(-c3c(-c4ccccc4)nn4ccccc34)cc12 as the compound, how does the inhibition [4] read?
Answer: Its inhibition is “inactive”.

Question: What does the source list for C[C@@]1(C(=O)Nc2ccc(F)nc2)CCCN1c1nc(Nc2cc(C3CC3)n[nH]2)c2cccn2n1?
Answer: inhibition [5]: -4.39%; inhibition [6]: 5.87%; inhibition [7]: -2.9%; inhibition [8]: -0.76%; inhibition [9]: 2.5%; inhibition [10]: 4.93%; inhibition [11]: -5.89%; inhibition [12]: 5.85%
